Experimental data published in BigSolDB 2.1.

CC(C)(C)NC[C@H](O)COc1nsnc1N1CCOCC1.O=C(O)/C=C\C(=O)O
Conditions	solubility (mole fraction)
in 2-methyltetrahydrofuran, 293.2 K	0.0001
in 2-methyltetrahydrofuran, 303.2 K	0.00017
in 2-methyltetrahydrofuran, 313.2 K	0.00038
in 2-methyltetrahydrofuran, 323.2 K	0.00067
in 2-methyltetrahydrofuran, 333.2 K	0.0013
in acetone, 281.1 K	0.00048
in acetone, 288.3 K	0.00056
in acetone, 292.8 K	0.00065
in acetone, 301.9 K	0.00089
in acetone, 313.3 K	0.00121
in acetone, 323.1 K	0.00166
in cyrene, 284 K	0.00047
in cyrene, 286.1 K	0.00054
in cyrene, 289.8 K	0.00075
in cyrene, 292.4 K	0.001
in cyrene, 301.1 K	0.00146
in cyrene, 312.2 K	0.0023
in cyrene, 323.7 K	0.00379
in cyrene, 332 K	0.0055
in dimethyl isosorbide, 282.6 K	0.00022
in dimethyl isosorbide, 289.1 K	0.00034
in dimethyl isosorbide, 297.5 K	0.00052
in dimethyl isosorbide, 309.7 K	0.00072
in dimethyl isosorbide, 325.9 K	0.00117
in dimethyl isosorbide, 330.9 K	0.00151
in ethanol, 280.1 K	0.00105
in ethanol, 285 K	0.0012
in ethanol, 290.8 K	0.00145
in ethanol, 302.3 K	0.00217
in ethanol, 312.8 K	0.00319
in ethanol, 322.7 K	0.00471
in ethanol, 329.8 K	0.00648
in isopropanol, 279.5 K	0.00013
in isopropanol, 282.9 K	0.00014
in isopropanol, 290.9 K	0.00018
in isopropanol, 293.6 K	0.00025
in isopropanol, 298.8 K	0.00037
in isopropanol, 313.7 K	0.0006
in isopropanol, 321.7 K	0.00097
in isopropanol, 330.1 K	0.00143
in n-butanol, 278.3 K	0.00028
in n-butanol, 281.7 K	0.00034
in n-butanol, 284.8 K	0.00038
in n-butanol, 289.6 K	0.00049
in n-butanol, 303.2 K	0.00075
in n-butanol, 305.1 K	0.00087
in n-butanol, 309.1 K	0.00102
in n-butanol, 316.3 K	0.00144
in n-butanol, 321.4 K	0.00178
in n-butanol, 328.7 K	0.00251
in water, 286 K	0.00245
in water, 293.1 K	0.00277
in water, 300.5 K	0.00319
in water, 305 K	0.00352
in water, 313.9 K	0.00449
in water, 320.8 K	0.00572
in water, 325.8 K	0.00694
in water, 327.2 K	0.0074
